Reference: publication PMC5815522 (Bioorganic & medicinal chemistry, 2016)
Values joined by “and” are separate entries in the source; they are usually repeats but may differ in a detail not shown here. Equal values may be shown once. Read-outs that look alike come from different tables or passages of the source.

Key:
HUT-78 cells [1] = experiment: Uptake in presence and absence of verapamil by flow cytometry; assay type: cell-based, human; conditions: 2 × 10^−7 M selenorhodamine, 1 × 10^−4 M VER, 1 h, mean ± SD
HUT-78 cells [2] = assay type: cell-based, human
[3] = system: CD3+ cells of SEB-stimulated PBMCs; assay type: cell-based, human
CD3+ (CD25+) cells = assay type: cell-based, human
CD3+ (CD25−) cells = assay type: cell-based, human
[4] = in CH3OH; cited from earlier work
[5] = in CH3OH, cited from earlier work; for Quantum yield for fluorescence ΦFL: excitation at 532 nm, ± SD
[6] = CH3OH, ± SD; cited from earlier work
P-gp [7] = biological target: T1, P-gp (Homo sapiens, UniProt P08183); conditions: cited from earlier work; for PPassive: mean of PAB and PBA in the fully inhibited system; for PAB, transport in absorptive direction / PBA, transport in secretory direction / PBA/PAB: no inhibitor; for PAB, transport in absorptive direction (+inh) / PBA, transport in secretory direction (+inh): with inhibitor
Colo-26 cells = conditions: P-gp-expressing Colo-26 cells; cited from earlier work
[8] = ± SD; cited from earlier work
P-gp [9] = biological target: T1, P-gp; experiment: P-gp transport studies across MDCKII-MDR1 monolayers; conditions: for PPassive: mean of PAB and PBA in the fully inhibited system; for PBA/PAB / PAB, transport in absorptive direction / PBA, transport in secretory direction: no inhibitor; for PAB, transport in absorptive direction / PBA, transport in secretory direction / PAB, transport in absorptive direction (+inh) / PBA, transport in secretory direction (+inh): 5 × 10^−6 M dye, 4.3 mg mL^−1 BSA, ± SD; for PAB, transport in absorptive direction (+inh) / PBA, transport in secretory direction (+inh): with 5 × 10^−6 M inhibitor 15
CD3+ (resting T cells) = assay type: cell-based, human
[10] = Electronic absorption spectra in MeOH; assay type: physicochemical; conditions: in CH3OH
[11] = Steady-state fluorescence spectra and quantum yields in CH3OH; assay type: physicochemical; conditions: for Quantum yield for fluorescence ΦFL: excitation at 532 nm, ± SD
[12] = assay type: physicochemical; conditions: air-saturated CH3OH, ± SD
CD4+ (helper T cells) = assay type: cell-based, human
CD8+ (cytotoxic T cells) = assay type: cell-based, human
HUT-78 cells [13] = experiment: Colocalization with organelle reporters by ImageStream imaging flow cytometry; assay type: cell-based, human; conditions: ± SD

T1 sequence (P08183 whole entry): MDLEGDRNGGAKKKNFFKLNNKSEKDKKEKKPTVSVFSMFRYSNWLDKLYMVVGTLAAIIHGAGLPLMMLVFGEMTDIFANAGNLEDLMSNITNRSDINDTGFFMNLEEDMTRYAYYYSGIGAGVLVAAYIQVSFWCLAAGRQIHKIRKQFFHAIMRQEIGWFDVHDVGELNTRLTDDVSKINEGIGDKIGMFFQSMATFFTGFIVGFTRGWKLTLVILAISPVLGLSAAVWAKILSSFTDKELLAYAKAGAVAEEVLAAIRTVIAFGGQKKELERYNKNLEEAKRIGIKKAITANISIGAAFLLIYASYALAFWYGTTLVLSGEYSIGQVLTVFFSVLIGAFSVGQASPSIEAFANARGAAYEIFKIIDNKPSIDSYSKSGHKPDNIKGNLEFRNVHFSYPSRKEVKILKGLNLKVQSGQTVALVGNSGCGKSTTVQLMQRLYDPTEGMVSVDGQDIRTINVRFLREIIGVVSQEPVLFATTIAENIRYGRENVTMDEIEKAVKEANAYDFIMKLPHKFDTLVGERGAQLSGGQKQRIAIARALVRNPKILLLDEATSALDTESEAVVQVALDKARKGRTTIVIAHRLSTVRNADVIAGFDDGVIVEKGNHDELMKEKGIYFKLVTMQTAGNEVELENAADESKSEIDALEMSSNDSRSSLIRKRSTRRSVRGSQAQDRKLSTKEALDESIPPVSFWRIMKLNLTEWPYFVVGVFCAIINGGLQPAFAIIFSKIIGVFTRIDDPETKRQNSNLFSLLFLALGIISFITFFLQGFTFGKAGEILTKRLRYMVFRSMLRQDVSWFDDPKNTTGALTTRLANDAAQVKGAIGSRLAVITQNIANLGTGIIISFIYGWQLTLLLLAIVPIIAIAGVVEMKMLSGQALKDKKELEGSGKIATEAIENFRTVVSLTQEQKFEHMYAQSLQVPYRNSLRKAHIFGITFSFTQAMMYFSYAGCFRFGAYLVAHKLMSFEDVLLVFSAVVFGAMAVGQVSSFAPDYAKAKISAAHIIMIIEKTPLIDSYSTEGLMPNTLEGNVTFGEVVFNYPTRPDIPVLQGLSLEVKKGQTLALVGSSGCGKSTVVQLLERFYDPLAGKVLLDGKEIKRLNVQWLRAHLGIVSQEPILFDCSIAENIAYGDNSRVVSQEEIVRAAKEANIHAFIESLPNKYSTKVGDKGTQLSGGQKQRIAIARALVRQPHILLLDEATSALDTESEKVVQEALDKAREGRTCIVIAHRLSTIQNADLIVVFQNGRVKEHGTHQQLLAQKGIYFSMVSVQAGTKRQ

| Molecule | ratio of uptake +VER/−VER (HUT-78 cells [1]) | % survival HUT-78 (HUT-78 cells [2]) | % survival CD3+ [3] | % survival CD3+ (CD25+) (CD3+ (CD25+) cells) | % survival CD3+ (CD25−) (CD3+ (CD25−) cells) | Absorption maximum λmax [4] | Molar extinction coefficient ε [4] | Quantum yield for fluorescence ΦFL [5] | Fluorescence emission maximum λFL [5] | Quantum yield for the generation of singlet oxygen Φ(1O2) [6] | ratio of uptake +VER/−VER (Colo-26 cells) | n-octanol/water partition coefficient log P [8] | PPassive (P-gp [9]) | PBA/PAB (P-gp [9]) | PAB, transport in absorptive direction (P-gp [9]) | PBA, transport in secretory direction (P-gp [9]) | PAB, transport in absorptive direction (+inh) (P-gp [9]) | PBA, transport in secretory direction (+inh) (P-gp [9]) | Absorption maximum λmax [10] | Molar extinction coefficient ε [10] | further results |
| --- | --- | --- | --- | --- | --- | --- | --- | --- | --- | --- | --- | --- | --- | --- | --- | --- | --- | --- | --- | --- | --- |
| CN1CCC(C)(C)c2cc3c(-c4ccc(C(=S)N5CCCCC5)s4)c4ccc(=[N+](C)C)cc-4[se]c3cc21.[Cl-] [Compd 3] | 1.27 ± 0.19 | 8.5 ± 1.2% | 21.0 ± 3.2% | 9.2 ± 1.0% | 29.1 ± 5.2% | 608 nm | 81100 M⁻¹ cm⁻¹ | 0.008 ± 0.001 | 634 nm | 0.44 ± 0.03 | 1.9 | 1.61 ± 0.06 | – | – | – | – | – | – | – | – | PPassive (P-gp [7]): ~2 ×10^−9 m s^−1; PAB, transport in absorptive direction (P-gp [7]): 1.9 ± 0.5 ×10^−9 m s^−1; PBA, transport in secretory direction (P-gp [7]): 29 ×10^−9 m s^−1 and 29 ± 3 ×10^−9 m s^−1; PBA/PAB (P-gp [7]): 15; PAB, transport in absorptive direction (+inh) (P-gp [7]): 1.7 ± 0.2 ×10^−9 m s^−1; PBA, transport in secretory direction (+inh) (P-gp [7]): 1.8 ± 0.1 ×10^−9 m s^−1 |
| CN1CCC(C)(C)c2cc3c(-c4ccc(C(=O)N5CCCCC5)s4)c4ccc(=[N+](C)C)cc-4[se]c3cc21.[Cl-] [Compd 4] | 1.33 ± 0.04 | 6.7 ± 1.2% | 26.6 ± 4.6% | 17.4 ± 1.7% | 32.3 ± 6.0% | 609 nm | 87300 M⁻¹ cm⁻¹ | 0.009 ± 0.001 | 634 nm | 0.48 ± 0.03 | 5.1 | 2.23 ± 0.04 | – | – | – | – | – | – | – | – | PPassive (P-gp [7]): ~6 ×10^−9 m s^−1; PAB, transport in absorptive direction (P-gp [7]): 0.9 ± 0.3 ×10^−9 m s^−1; PBA, transport in secretory direction (P-gp [7]): 164 ×10^−9 m s^−1 and 164 ± 4 ×10^−9 m s^−1; PBA/PAB (P-gp [7]): 182; PAB, transport in absorptive direction (+inh) (P-gp [7]): 1.0 ± 0.1 ×10^−9 m s^−1; PBA, transport in secretory direction (+inh) (P-gp [7]): 11.1 ± 0.2 ×10^−9 m s^−1 |
| S=C(c1ccc(C2=c3cc4c5c(c3[Se]c3c2cc2c6c3CCCN6CCC2)CCC[N+]=5CCC4)s1)N1CCCCC1.[Cl-] [Compd 5, 9-(5-(piperidylcarbamothioyl)thiophen-2-yl)-2,3,6,7,12,13,16,17-octahydro-[1H,5H,11H,15H]-10-selenoxantheno[2,3,4-ij:5,6,7-i′j′]diquinolizin-18-ium chloride] | 1.17 ± 0.13 | 2.0 ± 0.9% | 12.1 ± 2.6% | 4.8 ± 1.0% | 17.1 ± 4.3% | 626 nm | 99000 M⁻¹ cm⁻¹ | 0.010 ± 0.002 | 660 nm | 0.51 ± 0.03 | 2.9 | 4.1 ± 0.2 | <1 ×10^−9 m s^−1 | 57 | 0.3 ± 0.3 ×10^−9 m s^−1 | 18 ×10^−9 m s^−1 | 0.51 ± 0.3 ×10^−9 m s^−1 | 0.57 ± 0.1 ×10^−9 m s^−1 | – | – | – |
| O=C(c1ccc(C2=c3cc4c5c(c3[Se]c3c2cc2c6c3CCCN6CCC2)CCC[N+]=5CCC4)s1)N1CCCCC1.[Cl-] [Compd 6, 9-(5-(piperidylcarbamoyl)thiophen-2-yl)-2,3,6,7,12,13,16,17-octa-hydro[1H,5H,11H,15H]-10-selenoxantheno-[2,3,4-ij:5,6,7-i′j′]diquinolizin-18-ium chloride] | 1.13 ± 0.08 | 9.3 ± 2.7% | 65% | 37.4 ± 3.2% | – | 626 nm | 135000 M⁻¹ cm⁻¹ | 0.012 ± 0.001 | 660 nm | 0.64 ± 0.03 | 7.6 | 3.71 ± 0.08 | ~2 ×10^−9 m s^−1 | 37 | 2.1 ± 0.1 ×10^−9 m s^−1 | 78 ×10^−9 m s^−1 | 0.24 ± 0.1 ×10^−9 m s^−1 | 4.8 ± 0.1 ×10^−9 m s^−1 | – | – | % survival of the CD3+, CD4+, and CD8+ populations (CD3+ (resting T cells)): 62–78%; % of HUT-78 cells to which the photosensitizer was phototoxic (HUT-78 cells [2]): > 90% and 91% |
| C[N+]1=c2cc3c(cc2C(C)(C)CC1)=C(c1ccc(C(=S)N2CCCCC2)s1)c1cc2c4c(c1[Se]3)CCCN4CCC2.[Cl-] [Compd 7] | – | 5.1 ± 0.9% | 5.7 ± 2.6% | 2.6 ± 0.9% | – | – | – | – | – | – | – | – | <1 ×10^−9 m s^−1 | 20 | 0.44 ± 0.1 ×10^−9 m s^−1 | 8.8 ×10^−9 m s^−1 and 8.8 ± 0.3 ×10^−9 m s^−1 | 0.46 ± 0.1 ×10^−9 m s^−1 | 0.32 ± 0.2 ×10^−9 m s^−1 | 620 nm | 92000 M⁻¹ cm⁻¹ | Fluorescence emission maximum λFL [11]: 650 nm; Quantum yield for fluorescence ΦFL [11]: 0.008 ± 0.001; Quantum yield for the generation of singlet oxygen Φ(1O2) [12]: 0.54 ± 0.03; % survival CD4+ (CD4+ (helper T cells)): 0 ± 0%; % survival CD8+ (CD8+ (cytotoxic T cells)): 0 ± 0% |
| C[N+]1=c2cc3c(cc2C(C)(C)CC1)=C(c1ccc(C(=O)N2CCCCC2)s1)c1cc2c4c(c1[Se]3)CCCN4CCC2.[Cl-] [Compd 8] | – | 6.0 ± 0.2% | 10.3 ± 1.4% | 5.0 ± 0.9% | – | – | – | – | – | – | – | – | ~1 ×10^−9 m s^−1 | 48 | 1.4 ± 0.8 ×10^−9 m s^−1 | 66 ×10^−9 m s^−1 and 66 ± 10 ×10^−9 m s^−1 | 0.18 ± 0.1 ×10^−9 m s^−1 | 2.8 ± 0.2 ×10^−9 m s^−1 | 620 nm | 110000 M⁻¹ cm⁻¹ | Fluorescence emission maximum λFL [11]: 650 nm; Quantum yield for fluorescence ΦFL [11]: 0.009 ± 0.001; Quantum yield for the generation of singlet oxygen Φ(1O2) [12]: 0.64 ± 0.03 |
| CN1CCC(C)(C)c2cc3c(cc21)[Se]c1cc2c(cc1=C3c1ccc(C(=S)N3CCCCC3)s1)C(C)(C)CC[N+]=2C.[Cl-] [Compd 9] | – | 8.1 ± 4.1% | 9.2 ± 2.2% | 7.0 ± 0.7% | – | – | – | – | – | – | – | – | <1 ×10^−9 m s^−1 | 4 | – | 6.3 ×10^−9 m s^−1 and 6.3 ± 1.2 ×10^−9 m s^−1 | 0.51 ± 0.1 ×10^−9 m s^−1 | 0.13 ± 0.1 ×10^−9 m s^−1 | 614 nm | 93000 M⁻¹ cm⁻¹ | Fluorescence emission maximum λFL [11]: 645 nm; Quantum yield for fluorescence ΦFL [11]: 0.006 ± 0.001; Quantum yield for the generation of singlet oxygen Φ(1O2) [12]: 0.64 ± 0.03; % survival CD4+ (CD4+ (helper T cells)): 0 ± 0%; % survival CD8+ (CD8+ (cytotoxic T cells)): 0 ± 0% |
| CN1CCC(C)(C)c2cc3c(cc21)[Se]c1cc2c(cc1=C3c1ccc(C(=O)N3CCCCC3)s1)C(C)(C)CC[N+]=2C.[Cl-] [Compd 10] | – | 5.4 ± 0.8% | 22.2 ± 2.9% | 12.5 ± 0.4% | 29.8 ± 5.6% | – | – | – | – | – | – | – | ~2 ×10^−9 m s^−1 | 36 | 1.8 ± 1 ×10^−9 m s^−1 | 65 ×10^−9 m s^−1 and 65 ± 6 ×10^−9 m s^−1 | 0.51 ± 0.1 ×10^−9 m s^−1 | 4.0 ± 0.7 ×10^−9 m s^−1 | 614 nm | 105000 M⁻¹ cm⁻¹ | Fluorescence emission maximum λFL [11]: 645 nm; Quantum yield for fluorescence ΦFL [11]: 0.007 ± 0.001; Quantum yield for the generation of singlet oxygen Φ(1O2) [12]: 0.95 ± 0.03 |
| MitoTracker Red [Compd 17] | – | – | – | – | – | – | – | – | – | – | – | – | – | – | – | – | – | – | – | – | mean bright detail similarity score with 18 (LYS) (HUT-78 cells [13]; lysosome-specific reporter LysoTracker): 0.6 ± 0.4; mean bright detail similarity score with 16 (MTG) (HUT-78 cells [13]; mitochondrial reporter MitoTracker Green): 3.1 ± 0.7 |
